{"source": "patent US11795190B2", "about": "“D-glycero-B-D-heptose 1-phosphate (HMP) conjugates and use for targeted immune modulation” (NATIONAL RESEARCH COUNCIL OF CANADA, priority 2017, dated 2023)", "key": {"[1]": {"tested_on": "HCT 116 cells deficient in TIFA protein expression (TIFA KO)", "assay": "IL-8 ELISA in TIFA knockout HCT 116 cells", "format": "cell-based, human", "settings": "TIFA KO HCT 116", "experimental": "(§1) Wild type (WT) or TIFA knockout (TIFA KO) cells were treated with compounds in the presence of digitonin for 20 min, treatment was removed, cells were washed and then cultured in normal medium without the synthetic compounds for 6 hr before IL-8 levels in culture supernatants were measured by ELISA. (A) Cells were treated with water or 10 μg/mL of the indicated compound. Data are means±standard error mean of technical triplicates. (B) Cells were treated with the NOD1 agonist C12-iE-DAP (39.8 μM) or with two different molar concentrations of compounds (30 μM or 150 μM). Two batches of dd-β-HBP and dd-β-HMP synthesized independently of one another were tested (batch #1 and batch #2) to assess consistency of the chemical synthesis. Data are means±standard error mean of two (150 μM treatment) or three (all other treatments) independent experiments. Nod1 agonist: C12-iE-DAP (20 μg/ml, 39.8 μM); JS-12: D-glycero-D-manno-heptose; JS-2: D-glycero-D-manno-heptose 7-phosphate; JS-7:D-glycero-β-D-manno-heptose-phosphate; JS-8: d-glycero-α-d-manno-heptose-phosphate; JS-9: β-d-mannose phosphate; JS-6:d-glycero-β-d-manno heptose 1,7-biphosphate; JS-5: d-glycero-α-d-manno heptose 1,7-biphosphate.\n(§2) FIG. 11. Stimulation of human colonic epithelial cells by compounds/products according to the invention. Human colonic epithelial cells (HCT 116) that were either wild type (WT) or deficient in TIFA protein expression (knockout, KO) were stimulated for 20 minutes in permeabilization buffer (5 μg/mL digitonin) in the presence of water or 10 μg/mL, 30 μg/mL, or 50 μg/mL of indicated synthetic compounds according to the invention. Treatment was removed, cells were washed, and cells were incubated for 6 hours in complete media before IL-8 levels in culture supernatants was measured by ELISA. The results are the mean±standard error of the mean of three technical replicates. JS-10: 7-O-(Aminoethyl)-D-glycero-β-D-manno-heptopyranose phosphate; JS-11: 7-O-(Aminoethyl) -D-glycero-D-manno-heptopyranose; JS-12: D-glycero-D-manno-heptose; Js-13: pH-Rhodo -7-O-(aminoethyl)-D-glycero-β-D-manno-heptopyranose phosphate.\n(§3) FIG. 13. Stimulation of human colonic epithelial cells by compounds/products according to the invention. Human colonic epithelial cells (HCT 116) that were either wild type (WT) or deficient in TIFA protein expression (knockout, TIFA KO) were stimulated for 20 minutes in permeabilization buffer (5 μg/mL digitonin) in the presence of water, 20 μg/mL of the Nod1 agonist C12-iE-DAP (39.8 μM, which induces inflammation in a TIFA-independent manner) or 30 μM or 150 μM of synthetic compound according to the invention. Treatment was removed, cells were washed, and cells were incubated for 6 hours in complete media before IL-8 levels in culture supernatants were measured by ELISA. The results are the mean±standard error of the mean of two (150 μM treatment) or three (all other treatments) independent experiments. #=none detected, JS-10: 7-O-(Aminoethyl)-d-glycero-β-d-manno-heptopyranose phosphate; JS-14: Biotin-7-O-(aminoethyl)-d-glycero-β-d-manno-heptopyranose phosphate, Nod1 agonist: C12-iE-DAP (20 μg/ml, 39.8 μM).\nas §3, with “16.” for “13.”, “of” for “of the mean of two (150 μM treatment) or”, “technical replicates. […]” for “(all other treatments) independent experiments. #=none detected, JS-10: 7-O-(Aminoethyl)-d-glycero-β-d-manno-heptopyranose phosphate; JS-14: Biotin-7-O-(aminoethyl)-d-glycero-β-d-manno-heptopyranose phosphate, Nod1 agonist: C12-iE-DAP (20 μg/ml, 39.8 μM).”"}, "[2]": {"tested_on": "TIFA knockout (TIFA KO) HEK 293T cells encoding an NF-κB-driven luciferase reporter gene", "assay": "NF-κB-driven luciferase reporter assay in TIFA knockout HEK 293T cells", "format": "cell-based, human", "experimental": "(§4) FIGS. 10A-B. Effect of chemically synthesised analogues on human embryonic kidney cells (HEK 293T) encoding an NF-κB-driven luciferase reporter gene. NF-κB luciferase activity was measured in wild type (WT) or TIFA knockout (TIFA KO) cells treated with compounds in the presence of digitonin for 20 min, washed, and then cultured in normal medium without the synthetic compounds for 6 hrs after treatment, before luciferase activity was measured. (A) Cells were treated with 10 μg/mL of the indicated compound. Data are means±standard error mean of technical triplicates. (B) Cells were treated with two different molar concentrations of compound (30 μM or 150 μM). Two batches of DD-β-HBP and DD-β-HMP synthesized independently of one another were tested (batch #1 and batch #2) to assess consistency of the chemical synthesis. Data are means±standard error mean of technical triplicates and are representative of three independent experiments. JS-12: D-glycero-D-manno-heptose; JS-2: D-glycero-D-manno-heptose 7-phosphate; JS-7:D-glycero-β-D-manno-heptose-phosphate; JS-8: D-glycero-α-D-manno-heptose-phosphate; JS-9: β-D-mannose phosphate; JS-6:D-glycero-β-D-manno heptose 1,7-biphosphate; JS-5: D-glycero-α-D-manno heptose 1,7-biphosphate."}, "[3]": {"tested_on": "HEK 293T cells encoding an NF-κB-driven luciferase reporter gene", "assay": "NF-κB-driven luciferase reporter assay in HEK 293T cells", "format": "cell-based, human", "settings": "digitonin 20 min; for inflammatory NF-κB response (luciferase activity): FIG. 10, WT HEK 293T, 10 μg/mL or 30 μM/150 μM, luciferase after 6 hrs", "experimental": "as §4\nFIG. 12. Effects of compounds/products according to the invention on HEK 293T cells encoding an NF-κB-driven luciferase reporter gene. HEK 293T cells were transfected with a plasmid encoding an NF-κB-driven luciferase reporter. After 24 hours, cells were stimulated for 20 minutes in permeabilization buffer (5 μg/mL digitonin) in the presence of water or 10 μg/mL, 30 μg/mL, or 50 μg/mL of indicated synthetic compounds according to the invention. Treatment was removed; cells were washed and incubated for 6 hours incomplete medium. A luciferase assay was then performed. JS-12a control: D-glycero-D-manno heptose. The results are the means±standard error of the mean of three technical replicates. JS-10: 7-O-(Aminoethyl)-D-glycero-β-D-manno-heptopyranose phosphate; JS-11: 7-O-(Aminoethyl)-D-glycero-D-manno-heptopyranose; JS-12: D-glycero-D-manno-heptose; Js-13: pH-Rhodo-7-O-(aminoethyl)-D-glycero-β-D-manno-heptopyranose phosphate.\nFIG. 14. Effects of compounds/products according to the invention on HEK 293T cells encoding an NF-κB-driven luciferase reporter gene. HEK 293T cells were transfected with a plasmid encoding an NF-κB-driven luciferase reporter. After 24 hours, cells were stimulated for 20 minutes in permeabilization buffer (5 μg/mL digitonin) in the presence of water, or either 30 μM or 150 μM of indicated synthetic compounds according to the invention. Treatment was removed; cells were washed and incubated for 6 hours in complete medium. A luciferase assay was then performed. […]"}, "[4]": {"tested_on": "human colonic epithelial cells (HCT 116), wild type", "assay": "IL-8 ELISA in wild type HCT 116 cells after digitonin-permeabilised stimulation", "format": "cell-based", "settings": "WT HCT 116, digitonin 20 min", "experimental": "as §1, §2\nFIG. 13. […] Treatment was removed, cells were washed, and cells were incubated for 6 hours in complete media before IL-8 levels in culture supernatants were measured by ELISA. The results are the mean±standard error of the mean of two (150 μM treatment) or three (all other treatments) independent experiments. #=none detected, JS-10: 7-O-(Aminoethyl)-d-glycero-β-d-manno-heptopyranose phosphate; JS-14: Biotin-7-O-(aminoethyl)-d-glycero-β-d-manno-heptopyranose phosphate, Nod1 agonist: C12-iE-DAP (20 μg/ml, 39.8 μM).\nFIG. 16. […] Treatment was removed, cells were washed, and cells were incubated for 6 hours in complete media before IL-8 levels in culture supernatants were measured by ELISA. […]"}, "[5]": {"tested_on": "human macrophage cells (THP-1)", "assay": "IL-8 ELISA in THP-1 cells after digitonin-permeabilised stimulation", "format": "cell-based", "settings": "FIG. 15, higher (150 μM) concentrations, digitonin 20 min, IL-8 after 6 hours", "experimental": "FIG. 15. Stimulation of human macrophages by compounds/products according to the invention. Human macrophage cells (THP-1) were stimulated for 20 minutes in permeabilization buffer (5 μg/mL digitonin) in the presence of water, 39.8 μM of the Nod1 agonist C12-iE-DAP (which stimulates in a TIFA-independent manner), or either 30 μM or 150 μM of synthetic compound according to the invention. Treatment was removed, cells were washed, and cells were incubated for 6 hours in complete media before the IL-8 levels in culture supernatants were measured by ELISA. The results are the mean and standard error of the mean of three technical replicates. Nod1 agonist: C12-iE-DAP (20 μg/ml, 39.8 μM); JS-7: JS-7:D-glycero-β-D-manno-heptose-phosphate; JS-10: 7-O-(Aminoethyl)-D-glycero-β-D-manno-heptopyranose phosphate; JS-14: Biotin-7-O-(aminoethyl)-D-glycero-β-D-manno-heptopyranose phosphate."}, "[6]": {"settings": "FIG. 9, 10 μg/mL or 30 μM/150 μM"}, "[7]": {"settings": "FIG. 10, TIFA KO HEK 293T, 10 μg/mL or 30 μM/150 μM"}, "[8]": {"settings": "FIG. 9, 10 μg/mL or 30 μM/150 μM, IL-8 after 6 hr"}, "[9]": {"settings": "FIG. 13, 30 μM or 150 μM (Nod1 agonist 39.8 μM)"}, "[10]": {"settings": "FIG. 16, 30 μM or 150 μM (Nod1 agonist 39.8 μM)"}, "[11]": {"settings": "FIG. 17, TIFA KO cells, 30 μM or 150 μM"}}, "data": [{"compound": "O=P(O)(O)O[C@@H]1O[C@H]([C@H](O)CO)[C@@H](O)[C@H](O)[C@@H]1O", "note": "[JS7, D-glycero-β-D-manno-heptose-phosphate]", "values": [{"measurement": "activity in TIFA KO cells (IL-8), TIFA dependence", "setting": "[1]; [6]", "value": "relative absence of activity"}, {"measurement": "activity in TIFA KO cells (NF-κB luciferase), TIFA dependence", "setting": "[2]; [7]", "value": "relative absence of activity"}, {"measurement": "inflammatory NF-κB response (luciferase activity)", "setting": "[3]", "value": "inflammatory NF-κB response similar to that apparent with DD-β-HBP (JS6)"}, {"measurement": "inflammatory response (IL-8 in culture supernatant)", "setting": "[4]; [8]", "value": "inflammatory response similar to that apparent with DD-β-HBP (JS6)"}]}, {"compound": "O=C(CCCCC1SCC2NC(=O)NC21)NCCOC[C@@H](O)C1O[C@@H](OP(=O)([O-])[O-])C(O)C(O)[C@@H]1O.[Na+].[Na+]", "note": "(stereo partly drawn) [JS-14a]", "values": [{"measurement": "activity in TIFA KO cells (IL-8), TIFA dependence", "setting": "[1]; [9]", "value": "relative absence of activity"}, {"measurement": "activity in TIFA KO cells (NF-κB luciferase), TIFA dependence", "setting": "[2]; FIG. 14, TIFA KO cells, 30 μM or 150 μM", "value": "relative absence of activity"}, {"measurement": "inflammatory response (IL-8 in culture supernatant)", "setting": "[5]", "value": "stimulate an inflammatory response"}]}, {"compound": "O=C(CCCCC1SCC2NC(=O)NC21)NCCOCCOCCOCCOCCC(=O)NCCOC[C@@H](O)C1O[C@@H](OP(=O)(O)O)C(O)C(O)[C@@H]1O", "note": "(stereo partly drawn) [JS-24a, Biotin-PEG4-7-O-(aminoethyl)-D-glycero-β-D-manno-heptopyranose phosphate]", "values": [{"measurement": "activity in TIFA KO cells (IL-8), TIFA dependence", "setting": "[1]; [10]", "value": "relative absence of activity"}, {"measurement": "activity in TIFA KO cells (NF-κB luciferase), TIFA dependence", "setting": "[2]; [11]", "value": "relative absence of activity"}]}, {"compound": "CCCCCCCCCCCC(=O)N[C@H](CCC(=O)NC(CCCC(N)C(=O)O)C(=O)O)C(=O)O", "note": "(stereo partly drawn) [Nod1 agonist, C12-iE-DAP, reference compound]", "values": [{"measurement": "activity in TIFA KO cells (IL-8), TIFA dependence", "setting": "[1]; [9]", "value": "not TIFA-dependent"}, {"measurement": "activity in TIFA KO cells (IL-8), TIFA dependence", "setting": "[1]; [10]", "value": "not TIFA-dependent"}]}, {"compound": "Fluorescein-7-O-(aminoethyl)-D-glycero-β-D-manno-heptopyranose phosphate [JS-25a]", "values": [{"measurement": "activity in TIFA KO cells (IL-8), TIFA dependence", "setting": "[1]; [10]", "value": "relative absence of activity"}, {"measurement": "activity in TIFA KO cells (NF-κB luciferase), TIFA dependence", "setting": "[2]; [11]", "value": "relative absence of activity"}]}, {"compound": "O=P(O)(O)OC[C@@H](O)[C@H]1O[C@@H](OP(=O)(O)O)[C@@H](O)[C@@H](O)[C@@H]1O", "note": "[JS6, D-glycero-β-D-manno heptose 1,7-biphosphate, reference compound]", "values": [{"measurement": "activity in TIFA KO cells (IL-8), TIFA dependence", "setting": "[1]; [6]", "value": "relative absence of activity"}, {"measurement": "activity in TIFA KO cells (NF-κB luciferase), TIFA dependence", "setting": "[2]; [7]", "value": "relative absence of activity"}, {"measurement": "inflammatory NF-κB response (luciferase activity)", "setting": "[3]", "value": "inflammatory NF-κB response"}, {"measurement": "inflammatory response (IL-8 in culture supernatant)", "setting": "[4]; [8]", "value": "inflammatory response"}]}, {"compound": "pH-Rhodo-7-O-(aminoethyl)-D-glycero-β-D-manno-heptopyranose phosphate [JS-13a]", "values": [{"measurement": "activity in TIFA KO cells (IL-8), TIFA dependence", "setting": "[1]; FIG. 11, 10, 30 or 50 μg/mL", "value": "relative absence of activity"}, {"measurement": "activity in TIFA KO cells (NF-κB luciferase), TIFA dependence", "setting": "[2]; FIG. 12, TIFA KO cells, 10, 30 or 50 μg/mL", "value": "relative absence of activity"}, {"measurement": "inflammatory response (NF-κB luciferase)", "setting": "[3]; FIG. 12, HEK 293T, 10, 30 or 50 μg/mL, luciferase after 6 hours", "value": "strong inflammatory response"}, {"measurement": "inflammatory response (IL-8 in culture supernatant)", "setting": "[4]; FIG. 11, 10, 30 or 50 μg/mL, IL-8 after 6 hours", "value": "strong inflammatory response"}]}]}
